The values that follow come from paper PMC3476947 (Journal of medicinal chemistry, 2012).

Each structure is given as a SMILES string.

In assay [1] the test system is MBHA DNA substrate (25 base-pair). Description: Fluorescent intercalator displacement. As to conditions: 1.5 μM compound, FID counterscreen. The class given is binding.
For assay [2], the target named is T1, HCV NS3 helicase (NS3h_1b(con1)) (Hepatitis C virus genotype 1b, UniProt Q9WMX2). The experiment in a line: biochemical.
In assay [3] the target is T1, HCV NS3 helicase (NS3h_1b(con1)). Description: MBHA with RNA substrate. The class given is biochemical. Conditions: data not shown.

T1 sequence (Q9WMX2 1192-1657): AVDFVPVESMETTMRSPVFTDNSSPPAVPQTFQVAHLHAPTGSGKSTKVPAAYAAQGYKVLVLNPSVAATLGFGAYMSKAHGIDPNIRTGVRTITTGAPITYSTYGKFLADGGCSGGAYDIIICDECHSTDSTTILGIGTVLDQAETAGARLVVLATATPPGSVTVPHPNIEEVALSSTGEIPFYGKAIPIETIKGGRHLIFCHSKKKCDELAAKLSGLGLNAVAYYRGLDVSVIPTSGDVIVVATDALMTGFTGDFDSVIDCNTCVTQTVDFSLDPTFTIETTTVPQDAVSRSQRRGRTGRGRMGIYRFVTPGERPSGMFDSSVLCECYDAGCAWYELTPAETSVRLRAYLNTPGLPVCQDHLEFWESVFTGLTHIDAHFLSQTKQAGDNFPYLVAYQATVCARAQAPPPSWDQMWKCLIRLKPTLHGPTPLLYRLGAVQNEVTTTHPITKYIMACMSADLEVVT

On to `[Cl][Cd][Cl]` [CdCl2], for which the “decrease of fluorescence of DNA-bound ethidium bromide” value in assay [1] was “less than 8%”.
A word on the IC50: it is the concentration that gives 50% inhibition. In assay [2], `CO[C@@H]1[C@H](O)C[C@@H](O[C@@H]2C[C@H](Oc3cc4cc5c(c(O)c4c(O)c3C)C(=O)[C@@H](O[C@H]3C[C@@H](O[C@H]4C[C@@H](O[C@H]6C[C@](C)(O)[C@@H](OC(C)=O)[C@H](C)O6)[C@H](O)[C@@H](C)O4)[C@H](O)[C@@H](C)O3)[C@H]([C@H](OC)C(=O)[C@@H](O)[C@@H](C)O)C5)O[C@H](C)[C@@H]2OC(C)=O)O[C@@H]1C` [Chromomycin A3] returned an IC50 of 150 ± 30 nM. The “effect on HCV helicase-catalyzed RNA unwinding” value in assay [3] is recorded as “no effect”.
As for `Cc1c2ccncc2c(C)c2c1[nH]c1ccccc12` [ellipticine], the “decrease of fluorescence of DNA-bound ethidium bromide” value in assay [1] is recorded as “less than 8%”.
With `Cc1ccc2c(c1)sc(-c1ccc(N(C)C)cc1)[n+]2C.[Cl-]` [thioflavine T], the “effect on HCV helicase-catalyzed DNA unwinding” value in assay [2] (MBHA, up to 100 μM) is given as “no effect”. The “effect on HCV helicase-catalyzed RNA unwinding” value in assay [3] is given as “no effect”.
